One compound from patent US20140011749A1, “KETOGENIC DIET COMPOSITION FOR THE TREATMENT OF CHEMO THERAPY AND/OR RADIATION THERAPY PATIENTS” (priority 2011, published 2014) can be followed below.

In the assay the test system is GL261-luc cells. The assay is described as follows: GL261-luc intracranial malignant glioma mouse model: survival and bioluminescence. Type of assay: in vivo, albino C57BL/6 mice. To be noted: TMZ (5×50 mg/kg), animals maintained on SD.

Procedure: GL261-luc cells expressing luciferase were stereotactically implanted into the right frontal lobe of immune-competent albino C57BL/6 mice (NCI, Frederick, Md.). Following intracranial implantation, animals were fed standard rodent chow (SD) and were randomized to treatment groups on day 3 (SD vs KetoCal® with and without radiation or TMZ) based on bioluminescent signal (IVIS® Spectrum in vivo imaging system, Caliper Life Sciences, Hopkinton, Mass.). […] Mice were maintained on a 12 hour light/dark cycle and KetoCal® or SD was available ad libitum.

Compound `Cn1nnc2c(C(N)=O)ncn2c1=O` [TMZ, temozolomide] gave a median survival of 28 days.
